Test results reported in patent US11753446B2, “Beta-hairpin peptidomimetics” (POLYPHOR AG, priority 2014, dated 2023).
Read-outs that look alike come from different tables or passages of the source. Where a SMILES comes first, the peptide text is derived from it. Bridges are numbered along the chain shown (N, C = ends). [ ]: non-standard residue; d: D form. Tle = CC(C)(C)[C@H](N)C(=O)O; dDab = NCC[C@@H](N)C(=O)O; Orn = NCCC[C@H](N)C(=O)O; Dab = NCC[C@H](N)C(=O)O

Columns and labels:
[1] = system: Acinetobacter baumannii DSM 30008; type: cell-based
Method in brief: (§1)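 Peptide MICs were determined by NCCLS broth microdilution in cation-adjusted Mueller-Hinton II broth. Inoculum was about 10^6 CFU/mL, matched to 0.5 McFarland, with peptides in two-fold serial dilutions. The broth contained Polysorbate 80 at 0.002% final concentration.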

[2] = system: Escherichia coli ATCC 25922; type: cell-based
Method in brief: as §1

[3] = system: Klebsiella pneumoniae ATCC 13883; type: cell-based
Method in brief: as §1

[4] = system: human red blood cells (hRBC); test: Hemolysis: hemolytic activity at 100 μg/mL, 1 h at 37° C.
Method in brief: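 Peptides at 100 μg/mL incubated with washed 20% (v/v) human erythrocytes (~0.9×10^9 cells/mL) for 1 h at 37 °C with shaking. Released hemoglobin read at OD 540 nm in supernatant; 0% and 100% lysis from PBS/0.001% acetic acid and 2.5% Triton X-100.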

[5] = Mueller-Hinton II broth, 18-20 hours at 35° C.

Structure (SMILES)	Acinetobacter baumannii DSM 30008 MIC ([1]; DSM 30008)	Escherichia coli ATCC 25922 MIC ([2]; ATCC 25922)	Klebsiella pneumoniae ATCC 13883 MIC ([3]; ATCC 13883)	Hemolysis at 100 μg/mL ([4]; red cells of human, 1 h, 100)	Acinetobacter baumannii DSM 30008 MIC [1, 5]	Escherichia coli ATCC 25922 MIC [2, 5]	Klebsiella pneumoniae ATCC 13883 MIC [3, 5]	Hemolysis at 100 μg/mL ([4]; 100 μg/mL, 20% hRBC, 1 h at 37° C.)
CC(C)C[C@@H]1NC(=O)[C@H](CCN)NC(=O)[C@@H](CCN)NC(=O)[C@H](C(C)C)NC(=O)[C@@H]2CSSC[C@H](NC1=O)C(=O)N[C@@H](Cc1ccc(O)cc1)C(=O)N[C@@H](CC(N)=O)C(=O)N[C@@H](CCCN)C(=O)N[C@H](CCN)C(=O)N[C@@H](CCN)C(=O)N[C@@H](Cc1c[nH]c3ccccc13)C(=O)N[C@@H](CC(N)=O)C(=O)N[C@@H](Cc1ccc(O)cc1)C(=O)N2 [Example 54, cyclo(-Leu-Cys-Tyr-Asn-Orn-^DDab-Dab-Trp-Asn-Tyr-Cys-Val-^DDab-Dab-)] (HELM PEPTIDE1{C.V.[NCC[C@@H](N[*:1])C(=O)[*:2]].[Dab].L.C.Y.N.[Orn].[NCC[C@@H](N[*:1])C(=O)[*:2]].[Dab].W.N.Y}$PEPTIDE1,PEPTIDE1,1:R3-6:R3|PEPTIDE1,PEPTIDE1,1:R1-14:R2$$$V2.0)	1.25 µg/mL	0.75 µg/mL	1 µg/mL	3%				
CC(C)C[C@@H]1NC(=O)[C@H](CCCNC(=N)N)NC(=O)[C@@H](CCN)NC(=O)[C@H](C(C)C)NC(=O)[C@H](CO)NC(=O)[C@H](C(C)C)NC(=O)[C@@H]2CSSC[C@H](NC(=O)[C@H](Cc3ccc(O)cc3)NC(=O)[C@H](CO)NC1=O)C(=O)N[C@@H](CCCN)C(=O)N[C@H](CCN)C(=O)N[C@@H](CCN)C(=O)N[C@@H](Cc1ccccc1)C(=O)N2 [Example 39, cyclo(-Leu-Ser-Tyr-Cys-Orn-^DDab-Dab-Phe-Cys-Val-Ser-Val-^DDab-Arg-)] (HELM PEPTIDE1{C.[Orn].[NCC[C@@H](N[*:1])C(=O)[*:2]].[Dab].F.C.V.S.V.[NCC[C@@H](N[*:1])C(=O)[*:2]].R.L.S.Y}$PEPTIDE1,PEPTIDE1,1:R3-6:R3|PEPTIDE1,PEPTIDE1,1:R1-14:R2$$$V2.0)	0.5 µg/mL	0.5 µg/mL	0.25 µg/mL	4.5%				
CC(C)C[C@@H]1NC(=O)[C@H](CCCNC(=N)N)NC(=O)[C@@H](CCN)NC(=O)[C@H](C(C)(C)C)NC(=O)[C@@H]2CSSC[C@H](NC1=O)C(=O)N[C@@H](Cc1ccc(O)cc1)C(=O)N[C@@H](CC(N)=O)C(=O)N[C@@H](CCCN)C(=O)N[C@H](CCN)C(=O)N[C@@H](CCN)C(=O)N[C@@H](Cc1c[nH]c3ccccc13)C(=O)N[C@@H](CO)C(=O)N[C@@H](Cc1ccc(O)cc1)C(=O)N2 [Example 64, cyclo(-Leu-Cys-Tyr-Asn-Orn-^DDab-Dab-Trp-Ser-Tyr-Cys-tBuGly-^DDab-Arg-)] (cyclo(C[Tle][dDab]RLCYN[Orn][dDab][Dab]WSY); disulfide 1-6)					1.125 µg/mL	1 µg/mL	1 µg/mL	1%
CC(C)C[C@@H]1NC(=O)[C@@H]2CCCN2C(=O)[C@@H](C)NC(=O)[C@H](CO)NC(=O)[C@@H]2CCNC(=O)C[C@H](NC1=O)C(=O)N[C@@H](Cc1ccc(O)cc1)C(=O)N[C@@H](CCN)C(=O)N[C@@H](CCCN)C(=O)N[C@H](CCN)C(=O)N[C@@H](CCN)C(=O)N[C@@H](Cc1c[nH]c3ccccc13)C(=O)N[C@@H](CCN)C(=O)N[C@@H](Cc1ccc(O)cc1)C(=O)N2 [Example 77, cyclo(-Leu-Asp-Tyr-Dab-Orn-^DDab-Dab-Trp-Dab-Tyr-Dab-Ser-^DAla-Pro-)] (HELM PEPTIDE1{L.D.Y.[Dab].[Orn].[NCC[C@@H](N[*:1])C(=O)[*:2]].[Dab].W.[Dab].Y.[Dab].S.[dA].P}$PEPTIDE1,PEPTIDE1,2:R3-11:R3|PEPTIDE1,PEPTIDE1,1:R1-14:R2$$$V2.0)	3 µg/mL	1.5 µg/mL	2 µg/mL	1%				
